Calls of active or inactive are those of the source.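 The calls were made as follows: active = IC50 no higher than ten times the top tested dose; inconclusive = flat fit with 30 to 70% inhibition, or poor fit; inactive = IC50 above ten times the top dose.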

The first test can be described thus: growth modulation of Clostridium difficile isolate – OD600, 9-point, retest, dose response (AID 1224920).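 Also: plate controls were DMSO for no effect and levofloxacin control for full effect; inhibitors lower culture turbidity so OD600 falls.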 As to conditions: Clostridium difficile clinical isolate growth, OD600, 24 h; at 30 µM (top of the series).
In the case of `Cc1cccc(-c2ccc([C@@H]3[C@@H](CO)N4CCCCN(CCC(F)(F)F)C[C@@H]34)cc2)c1`, the activity change, negative = inhibition is 25% (inactive).

Staying with this test, now noted: Clostridium difficile clinical isolate growth, OD600, 24 h; at 60 µM (top of the series).
Turning to `O=C(C1CCCC1)N1C[C@@H]2N[C@H](C1)C2c1ccc(-c2ccccc2F)cc1` (stereo partly specified), the activity change, negative = inhibition is 51.8% (inactive).

As for `O=C(Nc1ccccc1F)N1C[C@@H]2N[C@H](C1)C2c1ccc(-c2cccc(F)c2)cc1` (stereo partly specified), the activity change, negative = inhibition is 33.4% (inactive).

For `C[C@H](CO)N1C[C@H](C)[C@H](CN(C)Cc2ccc(Oc3ccccc3)cc2)Oc2ccc(NS(=O)(=O)c3ccccc3)cc2CC1=O`, the activity change, negative = inhibition is 33.6% (inactive).

Take `COc1ccc(NC(=O)N2C[C@@H]3N[C@H](C2)C3c2ccc(-c3cccc(OC)c3)cc2)cc1` (stereo partly specified): the activity change, negative = inhibition is 28.8% (inactive).

Regarding `Cc1ccccc1-c1ccc(C2[C@@H]3CN(C(=O)C4CCCC4)C[C@H]2N3)cc1` (stereo partly specified), the activity change, negative = inhibition was 34.2% (inactive).

Turning to `COc1cccc(-c2ccc(C3[C@@H]4CN(C(=O)C5CCCCC5)C[C@H]3N4)cc2)c1` (stereo partly specified), the activity change, negative = inhibition was 34.7% (inactive).

As to `COc1ccc(NC(=O)N2[C@@H]3CNC[C@H]2C3c2ccc(-c3ccc(F)cc3)cc2)cc1` (stereo partly specified), the activity change, negative = inhibition is 39.8% (inactive).

For the compound `OC[C@H]1[C@H](c2ccc(-c3ccccc3)cc2)[C@@H]2CN(CCC(F)(F)F)CCCCN12`, the activity change, negative = inhibition is 31.7% (inactive).

Regarding `Cc1cccc(-c2ccc(C3[C@@H]4CN(C(=O)Cc5ccncc5)C[C@H]3N4)cc2)c1` (stereo partly specified), the activity change, negative = inhibition was 39.4% (inactive).

The same test, now with this note: Clostridium difficile clinical isolate growth, OD600, 24 h; at 68 µM (top of the series).
In the case of `O=C(c1ccc2c(c1)OCO2)N1C[C@@H]2N[C@H](C1)C2c1ccc(-c2ccccc2F)cc1` (stereo partly specified), the activity change, negative = inhibition is 31.1% (inactive).

The same test, now with this note: Clostridium difficile clinical isolate growth, OD600, 24 h; at 120 µM (top of the series).
In the case of `Cc1ccc(-c2ccc([C@@H]3[C@H]4CN(C(=O)Nc5cccc(F)c5)CCCCN4[C@H]3CO)cc2)cc1`, the activity change, negative = inhibition was 6.7% (inactive).

As to `CN1c2ccc(-c3cccc(F)c3)cc2[C@@H]2[C@@H](CCN2C(=O)C2CCCC2)[C@@H]1CO`, the activity change, negative = inhibition is 34.7% (inactive).

Take `Cc1ccc(S(=O)(=O)Nc2cccc3c2O[C@@H](CN(C)S(=O)(=O)c2ccccc2)[C@H](C)CN([C@H](C)CO)C3=O)cc1`: the activity change, negative = inhibition is -24.7% (inactive).

For the compound `CC(=O)N(C)C[C@@H]1[C@@H](c2ccc(-c3ccccc3F)cc2)[C@H](CO)N1C(C)=O`, the activity change, negative = inhibition was -14.3% (inactive).

Take `Cc1ccccc1-c1ccc([C@H]2[C@@H](CO)N3CCCCN(S(=O)(=O)c4ccc(F)cc4)C[C@H]23)cc1`: the activity change, negative = inhibition is 3.42% (inactive).

On to `CC(=O)N1[C@H](CO)[C@@H](c2ccccc2)[C@@H]1CN(C)C(=O)CN1CCOCC1`, for which the activity change, negative = inhibition is -9.56% (inactive).

As for `CN(C)C(=O)c1cccc(-c2ccc([C@@H]3[C@H]4CN(C(=O)C5CCCCC5)CC(=O)N4[C@H]3CO)cc2)c1`, the activity change, negative = inhibition was -5.65% (inactive).

Take `O=S(=O)(c1ccccc1)N1CCCCN2[C@H](CO)[C@H](c3ccc(C#Cc4ccccc4)cc3)[C@H]2C1`: the activity change, negative = inhibition is 27.6% (inactive).

On to `COc1ccc2c3c(n(C)c2c1)[C@@H](CO)N(C(=O)c1ccncc1)CC31CN(C)C1`, for which the activity change, negative = inhibition is 3.53% (inactive).

Turning to `O=S(=O)(c1ccc(F)cc1)N1CCCCN2[C@H](CO)[C@H](c3ccc(C#CC4CCCC4)cc3)[C@H]2C1`, the activity change, negative = inhibition is -16.2% (inactive).

On to `COc1ccc(S(=O)(=O)N2CCCCN3[C@H](CO)[C@@H](c4ccc(C#CC(C)C)cc4)[C@H]3C2)cc1`, for which the activity change, negative = inhibition was 39.3% (inactive).

As to `CN1c2ccc(Br)cc2[C@H]2[C@H](CCN2C(=O)Nc2ccc(F)cc2)[C@@H]1CO`, the activity change, negative = inhibition is 55.4% (inactive).

For the compound `COc1ccc2c3c(n(C)c2c1)[C@H](CO)N(C(=O)c1ccncc1)CC31CN(C)C1`, the activity change, negative = inhibition was 3.29% (inactive).

On to `CC(=O)N1[C@@H](CO)[C@@H](c2ccccc2)[C@@H]1CN(C)C(=O)CN1CCOCC1`, for which the activity change, negative = inhibition is -9.07% (inactive).

As for `N#C[C@@H]1[C@@H](c2ccccc2-c2cccc(F)c2)[C@H](CO)N1C(=O)NC1CCCCC1`, the activity change, negative = inhibition was 9.02% (inactive).

As to `N#C[C@H]1[C@@H](c2ccccc2-c2ccccc2)[C@H](CO)N1C(=O)Cc1ccccc1`, the activity change, negative = inhibition is 32.6% (inactive).

Take `O=C(c1cccc(F)c1)N1CC[C@@H]2[C@@H](CO)Nc3ccc(C#Cc4ccc(F)cc4)cc3[C@@H]21`: the activity change, negative = inhibition was 38.1% (inactive).

Take `C/C=C/c1ccc([C@@H]2[C@H](CO)N(C(=O)CC)[C@H]2CNC(=O)CC)cc1`: the activity change, negative = inhibition is -7.3% (inactive).

With `CN(C)C(=O)C[C@@H]1CC[C@@H]2[C@@H](COc3ccc(NC(=O)C4CCC4)cc3C(=O)N2C)O1`, the activity change, negative = inhibition is 0.255% (inactive).

For `C[C@H](CO)N1C[C@H](C)[C@@H](CN(C)S(=O)(=O)c2ccc(Cl)cc2)Oc2c(NS(=O)(=O)c3ccccc3)cccc2C1=O`, the activity change, negative = inhibition is -3.11% (inactive).

In the case of `COc1ccc2c3c(n(C)c2c1)[C@@H](CO)N(C(=O)C1CC1)CC31CN(C(=O)Nc2cccc(F)c2)C1`, the activity change, negative = inhibition was 18.8% (inactive).

Consider `CCCNC(=O)N1[C@H](C#N)[C@@H](c2ccccc2-c2ccc(C)cc2)[C@@H]1CO`, for which the activity change, negative = inhibition is 17% (inactive).

The test is the same for the next values; noted with them: Clostridium difficile clinical isolate growth, OD600, 24 h; at 135 µM (top of the series).
`COc1ccc(NC(=O)N2CC[C@H]3[C@@H]2c2cc(Br)ccc2N(C)[C@H]3CO)cc1`: the activity change, negative = inhibition was 4.83% (inactive).

Turning to `Cc1ccc(-c2ccccc2[C@@H]2[C@@H](C#N)N(C(=O)NC3CCCC3)[C@H]2CO)cc1`, the activity change, negative = inhibition was 25% (inactive).

On to `CC(=O)N(C)C[C@@H]1[C@@H](c2ccc(-c3ccccc3F)cc2)[C@@H](CO)N1C(C)=O`, for which the activity change, negative = inhibition is -15.6% (inactive).

Take `O=C(Nc1cccc(F)c1)N1CC(=O)N2[C@H](C1)[C@H](c1ccc(-c3cccc(F)c3)cc1)[C@@H]2CO`: the activity change, negative = inhibition is 37.9% (inactive).

`CC(=O)N1[C@H](CO)[C@@H](c2ccccc2)[C@H]1CN(C)C(=O)CN1CCOCC1`: the activity change, negative = inhibition was -1.86% (inactive).

In the case of `COc1ccc(NC(=O)N2CC[C@@H]3[C@H]2c2cc(Br)ccc2N(C)[C@@H]3CO)cc1`, the activity change, negative = inhibition was 17.8% (inactive).

In the case of `CN(C)C(=O)c1cccc(-c2ccc(C3[C@H]4CNC[C@@H]3N4S(=O)(=O)c3ccc(Cl)cc3)cc2)c1` (stereo partly specified), the activity change, negative = inhibition is 10.5% (inactive).

Consider `N#Cc1ccc(-c2ccc(C3[C@H]4CNC[C@@H]3N4C(=O)Nc3ccc(Cl)cc3)cc2)cc1` (stereo partly specified), for which the activity change, negative = inhibition was 25.9% (inactive).

The record behind these values is PubChem BioAssay AID1224920 (Broad Institute, 2016).
